Test [1] concerns MDA-MB-231 breast cancer cells. In words: Cell growth inhibition, Sulforhodamine B assay, MDA-MB-231. To be noted: Homo sapiens, 120 h, 5 days culture, SRB assay, read-out: Cell Line GI50 Range MDA-MB-231. It counts as cell-based. In general terms: Sulforhodamine B stains cellular protein and so reports cell mass.
Test [2] concerns the target T1, human TTK (Homo sapiens, UniProt P33981).
T1 construct: amino terminal GST fusion of full length human TTK; purchased Invitrogen
T1 sequence (P33981 1-857): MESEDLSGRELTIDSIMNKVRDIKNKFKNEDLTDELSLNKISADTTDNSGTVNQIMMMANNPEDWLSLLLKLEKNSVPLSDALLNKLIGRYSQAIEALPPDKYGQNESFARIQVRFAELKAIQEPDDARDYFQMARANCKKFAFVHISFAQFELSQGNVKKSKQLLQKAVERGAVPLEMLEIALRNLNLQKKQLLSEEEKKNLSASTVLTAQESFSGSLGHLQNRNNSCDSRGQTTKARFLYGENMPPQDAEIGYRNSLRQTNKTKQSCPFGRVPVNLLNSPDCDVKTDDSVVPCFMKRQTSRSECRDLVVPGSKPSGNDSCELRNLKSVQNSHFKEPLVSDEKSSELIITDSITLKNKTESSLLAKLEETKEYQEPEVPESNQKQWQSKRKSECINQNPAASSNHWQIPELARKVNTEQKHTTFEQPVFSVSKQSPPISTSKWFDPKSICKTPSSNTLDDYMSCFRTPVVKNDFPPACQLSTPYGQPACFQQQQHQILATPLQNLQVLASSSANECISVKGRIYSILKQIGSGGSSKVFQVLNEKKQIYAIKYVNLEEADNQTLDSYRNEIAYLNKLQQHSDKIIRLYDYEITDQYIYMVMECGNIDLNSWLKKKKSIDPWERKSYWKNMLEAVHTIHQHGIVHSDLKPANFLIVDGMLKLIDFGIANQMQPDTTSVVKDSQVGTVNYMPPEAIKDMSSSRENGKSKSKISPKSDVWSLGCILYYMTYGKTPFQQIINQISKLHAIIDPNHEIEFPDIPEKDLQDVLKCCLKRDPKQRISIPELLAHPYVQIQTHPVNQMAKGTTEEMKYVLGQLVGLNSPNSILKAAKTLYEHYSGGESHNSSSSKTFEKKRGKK
In words: TTK inhibition assay (indirect ELISA). The following applies: GST-TTK 0.68 nM, 16 μM ATP; read-out: IC50 Ranges TTK. In kind it is biochemical. On the technique in general: An ELISA detects its analyte on a solid surface through an enzyme-linked reagent.

The target of test [3] is T2, Aurora B (Homo sapiens, UniProt Q96GD4).
T2 construct: purchased Invitrogen PV3970
In words: Aurora B inhibition assay (Z-Lyte). It counts as biochemical. The following applies: 28 nM Aurora B, 128 μM ATP; read-out: IC50 Ranges Aurora B. Here is the method:
Aurora B inhibition was determined using the Z-Lyte assay kit from Invitrogen. The assay was performed using the recommended manufacturer's instructions with 128 μM ATP and 28 nM Aurora B (Invitrogen cat #PV3970). The % inhibition values were determined according to the manufacturer's directions and IC50 values were obtained using a non-linear 4 point logistic curve fit (XLfit4, IDBS)

Test [4] has as its system MDA-MB-468 breast cancer cells. In words: Cell growth inhibition, Sulforhodamine B assay, MDA-MB-468. It counts as cell-based. The following applies: Homo sapiens, 120 h, 5 days culture, SRB assay, read-out: Cell Line GI50 Range MDA-MB-468.
The subject of test [5] is HCT116 colon cancer cells. In words: Cell growth inhibition, Sulforhodamine B assay, HCT116. It counts as cell-based. To be noted: Homo sapiens, HCT-116, 120 h, 5 days culture, SRB assay, read-out: Cell Line GI50 Range HCT116.
The target in test [6] is T3, human PLK4 (Homo sapiens, UniProt O00444).
T3 construct: amino terminal GST fusion of residues 1-391 of human PLK4; made in house; host or cells: E. coli
T3 sequence (O00444 1-391): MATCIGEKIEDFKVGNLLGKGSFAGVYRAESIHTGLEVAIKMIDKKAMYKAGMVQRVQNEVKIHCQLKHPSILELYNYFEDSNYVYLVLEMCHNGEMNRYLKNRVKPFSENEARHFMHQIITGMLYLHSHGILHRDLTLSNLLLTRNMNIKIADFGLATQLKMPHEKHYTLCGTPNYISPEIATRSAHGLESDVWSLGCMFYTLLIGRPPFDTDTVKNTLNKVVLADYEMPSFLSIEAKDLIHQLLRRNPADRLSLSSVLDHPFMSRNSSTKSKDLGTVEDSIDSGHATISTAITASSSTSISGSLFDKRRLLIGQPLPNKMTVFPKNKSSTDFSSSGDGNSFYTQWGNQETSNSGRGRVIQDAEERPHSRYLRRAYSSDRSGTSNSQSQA
In words: PLK4 inhibition assay (indirect ELISA). In kind it is biochemical. The following applies: GST-PLK4 4 nM, 15 μM ATP; read-out: IC50 Ranges PLK4. Here is the method: Active PLK4 was purified from an E. coli expression system as an amino terminal GST fusion of residues 1-391 of human PLK4. The protein was purified from clarified cell extracts after induction at 15° C. overnight using glutathione sepharose, gel permeation chromatography, and ion exchange (Resource Q). The resulting protein was dephosphorylated with lambda phosphatase (NEB cat#P0753), and resolved from the phosphatase using gluthione sepharose. The dephosphorylated GST-PLK4 was stored in aliquots at −80° C. until use.
PLK4 activity was measured using an indirect ELISA detection system. GST-PLK4 (4 nM) was incubated in the presence of 15 μM ATP (Sigma cat#A7699), 50 mM HEPES-Na^2+ pH 7.5, 10 mM MgCl2, 0.01% Brij 35 (Sigma cat#03-3170), in a 96 well microtitre plate pre-coated with MBP (Millipore cat#30-011). The reaction was allowed to proceed for 30 minutes, followed by 5 washes of the plate with Wash Buffer (phosphate buffered saline supplemented with 0.2% Tween 20), and incubation for 30 minutes with a 1:3000 dilution of primary antibody (Cell Signaling cat#9381). The plate was washed 5 times with Wash Buffer, incubated for 30 minutes in the presence of secondary antibody coupled to horse radish peroxidase (BioRad cat#1721019, 1:3000 concentration), washed an additional 5 times with Wash Buffer, and incubated in the presence of TMB substrate (Sigma cat#T0440). The colourimetric reaction was allowed to continue for 5 minutes, followed by addition of stop solution (0.5 N sulphuric acid), and quantified by detection at 450 nm with either a monochromatic or filter based plate reader (Molecular Devices M5 or Beckman DTX880, respectively).
Compound inhibition was determined at either a fixed concentration (10 μM) or at a variable inhibitor concentration (typically 0.5 μM to 0.001 μM in a 10 point dose response titration). Compounds were pre-incubated in the presence of enzyme for 15 minutes prior to addition of ATP and the activity remaining quantified using the above described activity assay. The % Inhibition of a compound was determined using the following formula; % Inhibition=100×(1-(experimental value−background value)/(high activity control−background value)). The IC50 value was determined using a non-linear 4 point logistic curve fit (XLfit4, IDBS) with the formula; (A+(B/(1+((x/C)̂D)))), where A=background value, B=range, C=inflection point, D=curve fit parameter.

In test [7] the test system is HT29 colon cancer cells. In words: Cell growth inhibition, Sulforhodamine B assay, HT29. It counts as cell-based. To be noted: Homo sapiens, HT-29, 120 h, 5 days culture, SRB assay, read-out: Cell Line GI50 Range HT29.

Where only a bound is given, the exact number is not on record here.

T2 sequence (Q96GD4 whole entry): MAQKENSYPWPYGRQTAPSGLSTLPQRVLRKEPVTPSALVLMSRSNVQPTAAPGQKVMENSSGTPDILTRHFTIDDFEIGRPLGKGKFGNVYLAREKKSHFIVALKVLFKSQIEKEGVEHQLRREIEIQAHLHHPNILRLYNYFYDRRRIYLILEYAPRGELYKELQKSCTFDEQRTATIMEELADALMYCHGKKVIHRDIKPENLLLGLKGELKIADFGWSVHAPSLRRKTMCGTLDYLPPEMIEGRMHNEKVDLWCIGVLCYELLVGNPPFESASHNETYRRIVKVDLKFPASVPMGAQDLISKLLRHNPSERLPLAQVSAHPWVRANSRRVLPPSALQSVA

One may read the GI50 as the concentration giving 50% growth inhibition. By IC50 is commonly meant the concentration at which inhibition is half-maximal. Consider `O=C(Nc1ccc2[nH]nc(-c3cccc(CN4CCOCC4)c3)c2c1)C(c1ccsc1)N1CCCC1` (stereo not drawn) [Example A1, N-(3-(3-(morpholinomethyl)phenyl)-1H-indazol-5-yl)-2-(pyrrolidin-1-yl)-2-(thiophen-3-yl)acetamide], for which the GI50 in test [1], in test [4] and in test [5] was ≤ 5 µM throughout. The IC50 was ≤ 5 µM in test [2], 5 to 50 µM in test [3] and ≤ 5 µM in test [6].

With `CN1CCN(c2ccc(-c3n[nH]c4ccc(NC(=O)C(c5ccsc5)N5CCCC5)cc34)cc2)CC1` (stereo not drawn) [Example A2, N-(3-(4-(4-methylpiperazin-1-yl)phenyl)-1H-indazol-5-yl)-2-(pyrrolidin-1-yl)-2-(thiophen-3-yl)acetamide], the GI50 in test [1], in test [4] and in test [5] was ≤ 5 µM in each case. In addition, the IC50 in test [2], in test [3] and in test [6] was ≤ 5 µM throughout.

For `O=C(Nc1ccc2[nH]nc(-c3ccc4c(c3)OCO4)c2c1)C(c1ccsc1)N1CCCC1` (stereo not drawn) [Example A14, N-(3-(benzo[d][1,3]dioxol-5-yl)-1H-indazol-5-yl)-2-(pyrrolidin-1-yl)-2-(thiophen-3-yl)acetamide], the GI50 in test [1], in test [4] and in test [5] was ≤ 5 µM throughout. Besides, the IC50 in test [2] and in test [6] was ≤ 5 µM in each case.

For `O=C(Nc1ccc2[nH]nc(-c3ccc4c(c3)OCCO4)c2c1)C(c1ccsc1)N1CCCC1` (stereo not drawn) [Example A15, N-(3-(2,3-dihydrobenzo[b][1,4]dioxin-6-yl)-1H-indazol-5-yl)-2-(pyrrolidin-1-yl)-2-(thiophen-3-yl)acetamide], the GI50 in test [1], in test [4] and in test [5] was ≤ 5 µM each time. Moreover, the IC50 in test [2] and in test [6] was ≤ 5 µM throughout.

Turning to `O=C(Nc1ccc2[nH]nc(-c3ccc(CN4CCOCC4)cc3)c2c1)C1CCCc2ccccc21` (stereo not drawn) [Example A23, N-(3-(4-(morpholinomethyl)phenyl)-1H-indazol-5-yl)-1,2,3,4-tetrahydronaphthalene-1-carboxamide], the GI50 in test [1] was 5 to 20 µM; in test [4], ≤ 5 µM; in test [5] it was ≤ 5 µM. In addition, the IC50 in test [2] and in test [6] was ≤ 5 µM each time.

Regarding `C[C@@H]1CN(c2ccc(-c3n[nH]c4ccc(NC(=O)C(c5ccsc5)N5CCCC5)cc34)cc2)C[C@H](C)O1` (stereo partly drawn) [Example A50, N-(3-(4-((2S,6R)-2,6-dimethylmorpholino)phenyl)-1H-indazol-5-yl)-2-(pyrrolidin-1-yl)-2-(thiophen-3-yl)acetamide], the IC50 in test [2], in test [3] and in test [6] was ≤ 5 µM each time. Moreover, the GI50 in test [7], in test [4] and in test [5] was ≤ 5 µM each time.

As to `O=C(N[C@@H](c1ccccc1)C1CC1)c1ccc2[nH]nc(-c3ccc(N4CCOCC4)cc3)c2c1` [Example A51, (R)—N-(cyclopropyl(phenyl)methyl)-3-(4-morpholinophenyl)-1H-indazole-5-carboxamide], the concentration for half-maximal inhibition (IC50) in test [2], in test [3] and in test [6] was ≤ 5 µM each time. The GI50 in test [7], in test [4] and in test [5] was ≤ 5 µM in each case.

On to `O=C(Nc1ccc2[nH]nc(-c3ccc(NC4CCOCC4)cc3)c2c1)C(c1ccsc1)N1CCCC1` (stereo not drawn) [Example A71, 2-(pyrrolidin-1-yl)-N-(3-(4-((tetrahydro-2H-pyran-4-yl)amino)phenyl)-1H-indazol-5-yl)-2-(thiophen-3-yl)acetamide], for which the IC50 in test [2], in test [3] and in test [6] was ≤ 5 µM each time. Besides, the GI50 in test [7], in test [4] and in test [5] was ≤ 5 µM throughout.

Turning to `CN(c1ccc(-c2n[nH]c3ccc(NC(=O)C(c4ccsc4)N4CCCC4)cc23)cc1)C1CCOCC1` (stereo not drawn) [Example A78, N-(3-(4-(methyl(tetrahydro-2H-pyran-4-yl)amino)phenyl)-1H-indazol-5-yl)-2-(pyrrolidin-1-yl)-2-(thiophen-3-yl)acetamide], the IC50 in test [2], in test [3] and in test [6] was ≤ 5 µM each time. Further, the 50% growth inhibitory concentration (GI50) in test [7], in test [4] and in test [5] was ≤ 5 µM in each case.

`C[C@H]1CCCN1[C@H](C(=O)Nc1ccc2[nH]nc(-c3ccc(N4CCOCC4)cc3)c2c1)c1cccs1` [Example A79, (R)-2-((S)-2-methylpyrrolidin-1-yl)-N-(3-(4-morpholinophenyl)-1H-indazol-5-yl)-2-(thiophen-2-yl)acetamide]: the IC50 in test [2], in test [3] and in test [6] was ≤ 5 µM each time. Also, the concentration for 50% growth inhibition (GI50) in test [7], in test [4] and in test [5] was ≤ 5 µM in each case.

Regarding `CN1CCC(Oc2ccc(-c3n[nH]c4ccc(NC(=O)C(c5ccsc5)N5CCCC5)cc34)cc2N)CC1` (stereo not drawn) [Example A80, N-(3-(3-amino-4-((1-methylpiperidin-4-yl)oxy)phenyl)-1H-indazol-5-yl)-2-(pyrrolidin-1-yl)-2-(thiophen-3-yl)acetamide], the IC50 in test [2], in test [3] and in test [6] was ≤ 5 µM each time. Besides, the GI50 in test [7], in test [4] and in test [5] was ≤ 5 µM in each case.

The record behind these values is US20140051679A1, “KINASE INHIBITORS AND METHOD OF TREATING CANCER WITH SAME” (UNIVERISTY HEALTH NETWORKS, priority 2011, published 2014).
